{"source": "patent US20240216311A1", "about": "“FULLY-DILUTABLE, SELF-MICROEMULSIFYING DELIVERY SYSTEMS (SMEDDS) FOR POORLY WATER-SOLUBLE POLAR SOLUTES” (THE GOVERNING COUNCIL OF THE UNIVERSITY OF TORONTO, priority 2020, published 2024)", "key": {"[1]": {"conditions": "literature value, cited from earlier work"}, "[2]": {"assay": "Characteristic curvature (Cc) by salinity phase scans with reference surfactant C9E5", "type": "physicochemical", "conditions": "for Cc (characteristic curvature): methodology of Example 1, C9E5 as reference surfactant; for dS*/dx: polar oil in mixtures with C9E5, heptane (cyclohexane for CBD) as oil", "experimental": "The characteristic curvature (Cc) of the candidate hydrophilic linker with extremely negative Cc (Cc<−5) was determined following the mixed reference and test surfactant method used by Zarate et al.. […] The salinity phase scans were conducted by vortex-mixing 2 mL of the aqueous surfactant solution, containing a set value of sodium chloride (g NaCl/100 mL of aqueous surfactant solution or % w/v NaCl) with 2 mL of n-heptane at room temperature in 2-dram vials sealed with a silicone-lined cap. […] The difference between the initial volume added to the vial (2 mL), and the excess phase volume was considered the volume solubilized. The ratio between the volume solubilized (in mL) and the total mass of surfactant mixture (0.2 g) was reported as the solubilization parameter (SP) for the given phase at the set salinity."}, "[3]": {"conditions": "cited from earlier work; for Polar area: from ChemSpider; for Dipole moment: from Tantishaiyakul et al. [33]"}, "[4]": {"conditions": "adapted from [21]; cited from earlier work"}, "[5]": {"conditions": "from Drugbank, nonylphenol from ChemSpider"}}, "note": "Where two headings read alike, the source gives them in different places."}
{"molecule": "Sucrose palmitate", "values": [{"measurement": "Cc (characteristic curvature)", "setting": "[1]", "result": "−0.8 ± 0.2"}]}
{"molecule": "Nonylphenol", "values": [{"measurement": "Cc (characteristic curvature)", "setting": "[2]", "result": "+7.2"}, {"measurement": "Polar area", "setting": "[3]", "result": 20, "unit": "Å^2"}, {"measurement": "Number of H-acceptors", "setting": "[3]; [5]", "result": 2}, {"measurement": "Number of H-donors", "setting": "[3]; [5]", "result": 1}, {"measurement": "pKa", "setting": "[3]; [5]", "result": "Neutral"}, {"measurement": "Dipole moment", "setting": "[3]", "result": 1.6, "unit": "Debye"}, {"measurement": "logP", "setting": "[3]; octanol-water, from Drugbank, nonylphenol from ChemSpider", "result": 5.8}]}
{"molecule": "CCCCCCCC/C=C\\CCCCCCCC(=O)O", "note": "[Oleic acid]", "values": [{"measurement": "Cc (characteristic curvature)", "setting": "[1]", "result": "0 ± 0.1"}]}
{"molecule": "C=C(C)[C@@H]1CCC(C)=C[C@H]1c1c(O)cc(CCCCC)cc1O", "note": "[Cannabidiol (CBD), Cannabidiol]", "values": [{"measurement": "Cc (characteristic curvature)", "setting": "[2]", "result": "+2.6"}, {"measurement": "dS*/dx", "setting": "[2]", "result": "−38", "unit": "% w/v NaCl"}, {"measurement": "Polar area", "setting": "[3]", "result": 40, "unit": "Å^2"}, {"measurement": "Aqueous solubility", "setting": "[3]; [5]", "result": 0.0013, "unit": "wt %"}, {"measurement": "Number of H-acceptors", "setting": "[3]; [5]", "result": 2}, {"measurement": "Number of H-donors", "setting": "[3]; [5]", "result": 2}, {"measurement": "pKa", "setting": "[3]; [5]", "result": "Neutral"}, {"measurement": "Dipole moment", "setting": "[3]", "result": 1.9, "unit": "Debye"}]}
{"molecule": "Sucrose distearate", "values": [{"measurement": "Cc (characteristic curvature)", "setting": "[1]", "result": "+4 ± 0.2"}]}
{"molecule": "CC(C)Cc1ccc(C(C)C(=O)O)cc1", "note": "(racemic) [Ibuprofen]", "values": [{"measurement": "Cc (characteristic curvature)", "setting": "[2]", "result": "+4.9"}, {"measurement": "Polar area", "setting": "[3]", "result": 37, "unit": "Å^2"}, {"measurement": "Number of H-acceptors", "setting": "[3]; [5]", "result": 2}, {"measurement": "Number of H-donors", "setting": "[3]; [5]", "result": 1}, {"measurement": "Dipole moment", "setting": "[3]", "result": 1.9, "unit": "Debye"}]}
{"molecule": "CCCCCCCC/C=C\\CCCCCCCC(=O)OCCOCC(OCCO)C1OCC(OCCO)C1OCCO", "note": "(centres unmarked) [Tween 80]", "values": [{"measurement": "Cc (characteristic curvature)", "setting": "[1]", "result": "−3.0 ± 0.7"}, {"measurement": "L", "setting": "[4]", "result": 34, "unit": "Å"}, {"measurement": "vs/as", "setting": "[4]", "result": 25.8, "unit": "Å"}]}
{"molecule": "Disodium stearoyl capryl glutamate", "values": [{"measurement": "Cc (characteristic curvature)", "setting": "[1]", "result": "−5 ± 0.2"}, {"measurement": "vs/as", "setting": "[4]", "result": 7.9, "unit": "Å"}]}
{"molecule": "C=CCc1ccc(O)c(OC)c1", "note": "[Eugenol]", "values": [{"measurement": "Cc (characteristic curvature)", "setting": "[2]", "result": "+2.8"}, {"measurement": "dS*/dx", "setting": "[2]", "result": "−37", "unit": "% w/v NaCl"}, {"measurement": "Polar area", "setting": "[3]", "result": 29, "unit": "Å^2"}, {"measurement": "Number of H-acceptors", "setting": "[3]; [5]", "result": 2}, {"measurement": "Number of H-donors", "setting": "[3]; [5]", "result": 1}, {"measurement": "pKa", "setting": "[3]; [5]", "result": "Neutral"}, {"measurement": "Dipole moment", "setting": "[3]", "result": 2.8, "unit": "Debye"}]}
{"molecule": "CCOC(=O)c1ccc(N)cc1", "note": "[Benzocaine]", "values": [{"measurement": "Cc (characteristic curvature)", "setting": "[2]", "result": "+1.6"}, {"measurement": "dS*/dx", "setting": "[2]", "result": "−27", "unit": "% w/v NaCl"}]}
{"molecule": "CCCCCCCC/C=C\\CCCCCCCC(=O)OCC(O)CO", "note": "(centres unmarked) [Glycerol monooleate]", "values": [{"measurement": "Cc (characteristic curvature)", "setting": "[1]", "result": "+6.6 ± 1.5"}, {"measurement": "Cc (characteristic curvature)", "setting": "[1]; listed as Peceol™", "result": "+6.6"}]}
{"molecule": "CCCCCCCC(=O)[O-].[Na+]", "note": "[Sodium octanoate]", "values": [{"measurement": "Cc (characteristic curvature)", "setting": "[1]", "result": "−2.1 ± 0.1"}, {"measurement": "L", "setting": "[4]", "result": 12, "unit": "Å"}, {"measurement": "vs/as", "setting": "[4]", "result": 4.6, "unit": "Å"}]}
{"molecule": "Sorbitan monooleate [Sorbitan monooleate (Span 80)]", "values": [{"measurement": "Cc (characteristic curvature)", "setting": "[1]", "result": "+5.0 ± 1^"}]}
{"molecule": "CCCCCCCC/C=C\\CCCCCCCC(=O)[O-].[Na+]", "note": "[Sodium oleate]", "values": [{"measurement": "Cc (characteristic curvature)", "setting": "[1]", "result": "−1.7 ± 0.1"}, {"measurement": "L", "setting": "[4]", "result": 30, "unit": "Å"}, {"measurement": "vs/as", "setting": "[4]", "result": 8.4, "unit": "Å"}]}
{"molecule": "Sorbitan monolaurate [Sorbitan monolaurate, Span 20]", "values": [{"measurement": "Cc (characteristic curvature)", "setting": "[1]", "result": "+3.5 ± 0.8"}]}
